The test system of assay [1] is human promyelocytic leukemia cells (HL-60) (ATCC CCL-240). The experiment in a line: Apoptosis-inducing activity to HL-60 cells, microscope and trypan blue count (method of Example 7). The assay is classed as cell-based. As to conditions: 0.05 ml of aqueous solution (0.1 mg/ml) added, 16 hours. The protocol: Thus, HL-60 (ATCC CCL-240) were incubated in an RPMI 1640 medium (manufactured by Nissui) containing 10% of fetal calf serum (manufactured by Gibco) treated at 56° C. for 30 minutes and then suspended in an RPMI 1640 medium to make the cell concentration 2.5×10^5 cells/4.5 ml.
To 4.5 ml of this suspension was added 0.5 ml of the above-mentioned heat-treated pectin solution and the mixture was incubated at 37° C. for 16 hours in the presence of 5% of carbon dioxide. For the sake of confirmation, the same incubation as above was conducted except that 0.05 ml of an aqueous solution (0.1 mg/ml) of actinomycin D (manufactured by Sigma) which was known as an apoptosis-inducing reagent and 0.45 ml of a physiological saline solution were used instead of the above-mentioned heat-treated pectin solution.
Incidentally, in the control where the cells to which 0.5 ml of a physiological saline solution was added were incubated, such phenomena were not observed.
Further, to the cell suspension was added twice as much by volume of a 0.4% aqueous solution of trypan blue and an observation was conducted under an optical microscope whereby trypan blue was excreted and colorless cells and blue-colored cells were counted as viable and dead cells, respectively.

Assay [2] deals with Human promyelocytic leukemia cells HL-60 (ATCC CRL-1964). The experiment in a line: Apoptosis induction in HL-60 cells, optical microscope (Example 1). It counts as cell-based. As to conditions: 0.1 ml of aqueous solution (0.1 mg/ml) added, 16 hours. As to the method: Human promyelocytic leukemia cells HL-60 (ATCC CRL-1964) were incubated in an RPMI 1640 medium (manufactured by Nissui) containing 10% of fetal calf serum (manufactured by Gibco) treated at 56° C. for 30 minutes and then suspended in an ASF 104 medium (manufactured by Ajinomoto) to make the cell concentration 5×10^5cells/9 ml.
To this suspension was added 1 ml of the heat-treated pectin solution and the mixture was incubated at 37° C. for 16 hours in the presence of 5% of carbon dioxide. For the sake of confirmation, the same incubation as above was conducted except that 0.1 ml of aqueous solution (0.1 mg/ml) of actinomycin D (manufactured by Sigma) which was known as an apoptosis-inducing reagent and 0.9 ml of a physiological saline solution were used instead of the above-mentioned pectin solution.
Incidentally, in the control where the cells to which 1 ml of physiological saline solution was added were incubated, such phenomena were not observed.

SMILES strings stand for the structures. *1 amine or outer side, *2 acyl side, *3 side chain or, on linkers, in order; H or OH if unused. Where a SMILES comes first, the peptide text is derived from it. Bridges are numbered along the chain shown (N, C = ends). Roman numbers before positions name the chains, in order. [ ]: non-standard residue; d: D form. Actinocin(9to1) = Cc1c2oc3c(C)ccc(C(=O)[*:1])c3nc-2c(C(=O)[*:2])c(N)c1=O; NMeV = CN[C@H](C(=O)O)C(C)C; Sar = CNCC(=O)O

With `Cc1c2oc3c(C)ccc(C(=O)N[C@@H]4C(=O)N[C@H](C(C)C)C(=O)N5CCC[C@H]5C(=O)N(C)CC(=O)N(C)[C@@H](C(C)C)C(=O)O[C@@H]4C)c3nc-2c(C(=O)N[C@@H]2C(=O)N[C@H](C(C)C)C(=O)N3CCC[C@H]3C(=O)N(C)CC(=O)N(C)[C@@H](C(C)C)C(=O)O[C@@H]2C)c(N)c1=O` [actinomycin D] (I: T[dV]P[Sar][NMeV] / II: T[dV]P[Sar][NMeV]; ester I:1-I:C, II:1-II:C; linker I:N-II:N via Actinocin(9to1)), the “condensation of nuclei, contraction of cells and production of apoptotic body” value in assay [1] was “condensation of nuclei, contraction of cells and production of apoptotic body were confirmed”; in assay [2] it was “condensation of nuclei, contraction of cells and production of apoptotic body were confirmed”.

Values taken from US6482806B1, “Product of heat treatment of uronic acid, food, drink, or drug including the product” (Takara Shuzo Co., Ltd., priority 1996, dated 2002).
